In ChEMBL document CHEMBL1131167, “Structure-activity relationships of a series of analogues of the octadecaneuropeptide ODN on calcium mobilization in rat astrocytes” (1998):
Peptide text beside a SMILES is read from it.

Key:
Assay type in all cases: functional
Rattus norvegicus [1] = species on record: Rattus norvegicus; assay: Effect of compound on basal [Ca2+] and ODN induced [Ca2+] increase in cultured rat astrocytes measured at 10*e-6 conc (M)
Rattus norvegicus [2] = species on record: Rattus norvegicus; assay: Effect of compound on basal [Ca2+] and ODN induced [Ca2+] increase in cultured rat astrocytes measured at 10*e-8+10e-6 conc (M) in the presence of [D-Thr9]-ODN
Rattus norvegicus [3] = species on record: Rattus norvegicus; assay: Effect of compound on basal [Ca2+] and ODN induced [Ca2+] increase in cultured rat astrocytes measured at 10*e-8+10e-6 conc (M) in the presence of [D-Leu15]-ODN
Rattus norvegicus [4] = species on record: Rattus norvegicus; assay: Effect of compound on basal [Ca2+] and ODN induced [Ca2+] increase in cultured rat astrocytes measured at 10*e-8+10e-6 conc (M) in the presence of [Ala15]ODN. p<0.001
Rattus norvegicus [5] = species on record: Rattus norvegicus; assay: Effect of compound on basal [Ca2+] and ODN induced [Ca2+] increase in cultured rat astrocytes measured at 10*e-8+10e-6 conc (M) in the presence of [D-Leu5-]OP
Rattus norvegicus [6] = species on record: Rattus norvegicus; assay: Effect of compound on basal [Ca2+] and ODN induced [Ca2+] increase in cultured rat astrocytes measured at 10*e-8 conc (M).
Rattus norvegicus [7] = species on record: Rattus norvegicus; assay: Effect of compound on basal [Ca2+] and ODN induced [Ca2+] increase in cultured rat astrocytes measured at 10*e-8+10e-6 conc (M) in the presence of [Ala9]ODN. p<0.001

Structure (SMILES) | [Ca2+] variation (Rattus norvegicus [1]) [nM] | [Ca2+] variation (Rattus norvegicus [2]) [nM] | [Ca2+] variation (Rattus norvegicus [3]) [nM] | [Ca2+] variation (Rattus norvegicus [4]) [nM] | [Ca2+] variation (Rattus norvegicus [5]) [nM] | [Ca2+] variation (Rattus norvegicus [6]) [nM] | [Ca2+] variation (Rattus norvegicus [7]) [nM]
CC(C)C[C@H](NC(=O)CNC(=O)[C@@H]1CCCN1C(=O)[C@@H](N)CCCNC(=N)N)C(=O)N[C@@H](C)C(=O)N[C@@H](CC(=O)O)C(=O)N[C@@H](CC(C)C)C(=O)N[C@@H](CCCCN)C(=O)O (H-RPGLADLK-OH) | 37 |  |  |  |  |  | 
CC(C)C[C@H](NC(=O)CNC(=O)[C@@H]1CCCN1C(=O)[C@H](CCCN=C(N)N)NC(=O)[C@H](CC(=O)O)NC(=O)[C@@H](NC(=O)[C@H](CC(N)=O)NC(=O)[C@@H](NC(=O)[C@H](CC(=O)O)NC(=O)CNC(=O)[C@@H](NC(=O)[C@@H](NC(=O)[C@H](C)NC(=O)[C@@H](N)CCC(N)=O)[C@@H](C)O)C(C)C)C(C)C)[C@@H](C)O)C(=O)N[C@@H](CC(C)C)C(=O)N[C@@H](CC(=O)O)C(=O)N[C@@H](CC(C)C)C(=O)N[C@@H](CCCCN)C(=O)O [QATVGDVNTDRPGLLDLK] (H-QATVGDVNTDRPGLLDLK-OH) |  | 31 | 25 | 36 | 39 | 62 | 39
